Results published in ChEMBL document CHEMBL1909046, “DrugMatrix in vitro pharmacology data”.

Assays:
[1] = DRUGMATRIX: Purinergic P2X radioligand binding (ligand: [3H] alpha, beta-Methylene-ATP); format: cell membranes, Oryctolagus cuniculus, New Zealand albino, Urinary bladder, Membrane; settings: Not Active = under 50% inhibition at 10 µM
[2] = DRUGMATRIX: Imidazoline I2, Central radioligand binding (ligand: [3H] Idazoxan); format: cell membranes, Rattus norvegicus, Wistar, Cerebral cortex, Membrane; settings: Not Active = under 50% inhibition at 10 µM
Cytochrome P450 2A6 = target: T1, Cytochrome P450 2A6 (Homo sapiens, UniProt P11509); settings: bti-tn-5b1-4; also: in other assays of this panel Not Active means under 50% inhibition at 10 µM
T1 sequence (P11509 whole entry): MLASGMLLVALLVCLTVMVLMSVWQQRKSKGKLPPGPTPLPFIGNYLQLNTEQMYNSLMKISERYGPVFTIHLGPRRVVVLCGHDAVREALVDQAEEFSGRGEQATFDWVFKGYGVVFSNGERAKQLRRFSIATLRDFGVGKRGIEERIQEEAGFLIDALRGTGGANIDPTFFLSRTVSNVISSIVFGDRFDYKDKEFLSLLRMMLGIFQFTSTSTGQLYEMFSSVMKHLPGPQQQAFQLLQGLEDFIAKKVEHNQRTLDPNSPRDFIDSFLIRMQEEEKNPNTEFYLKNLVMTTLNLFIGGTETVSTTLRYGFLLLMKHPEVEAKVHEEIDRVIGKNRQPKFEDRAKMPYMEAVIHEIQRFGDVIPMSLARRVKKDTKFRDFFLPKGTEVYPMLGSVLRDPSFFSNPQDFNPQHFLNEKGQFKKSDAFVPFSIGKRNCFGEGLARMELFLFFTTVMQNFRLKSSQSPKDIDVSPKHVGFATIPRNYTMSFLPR

[3] = target: T2, 3-hydroxy-3-methylglutaryl-coenzyme A reductase (Homo sapiens, UniProt P04035); set-up: species or system Escherichia coli;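 also: enzyme inhibition assay of HMG-CoA reductase using radiolabeled [14C]HMG-CoA as substrate; in other assays of this panel Not Active means under 50% inhibition at 10 µM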
T2 sequence (P04035 whole entry): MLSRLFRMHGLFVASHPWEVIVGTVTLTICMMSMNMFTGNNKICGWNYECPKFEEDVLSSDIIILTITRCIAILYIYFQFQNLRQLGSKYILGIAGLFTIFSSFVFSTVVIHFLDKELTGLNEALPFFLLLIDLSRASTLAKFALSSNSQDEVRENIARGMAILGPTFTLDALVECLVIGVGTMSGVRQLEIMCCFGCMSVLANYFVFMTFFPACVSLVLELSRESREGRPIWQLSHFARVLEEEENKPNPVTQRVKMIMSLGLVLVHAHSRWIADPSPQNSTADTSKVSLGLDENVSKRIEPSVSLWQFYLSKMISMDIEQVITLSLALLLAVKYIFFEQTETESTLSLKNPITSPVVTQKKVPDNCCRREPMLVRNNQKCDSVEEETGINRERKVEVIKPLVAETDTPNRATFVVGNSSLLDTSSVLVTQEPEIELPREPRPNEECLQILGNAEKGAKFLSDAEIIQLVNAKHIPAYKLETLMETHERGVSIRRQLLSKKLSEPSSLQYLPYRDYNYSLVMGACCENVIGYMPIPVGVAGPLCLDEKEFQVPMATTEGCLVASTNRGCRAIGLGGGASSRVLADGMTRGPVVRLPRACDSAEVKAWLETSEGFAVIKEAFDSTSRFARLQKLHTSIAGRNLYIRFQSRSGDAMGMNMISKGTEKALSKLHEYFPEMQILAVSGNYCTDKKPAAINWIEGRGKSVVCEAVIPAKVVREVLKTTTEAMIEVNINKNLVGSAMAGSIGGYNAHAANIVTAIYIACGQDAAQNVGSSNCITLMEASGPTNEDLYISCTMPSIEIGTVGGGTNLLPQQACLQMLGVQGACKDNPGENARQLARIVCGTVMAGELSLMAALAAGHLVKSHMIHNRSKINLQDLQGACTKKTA

[4] = target: T3, 5-hydroxytryptamine receptor 1A (Rattus norvegicus, UniProt P19327); format: cell membranes, CHO-K1, Membrane; settings: cho-k1; also: in other assays of this panel Not Active means under 50% inhibition at 10 µM
T3 sequence (P19327 whole entry): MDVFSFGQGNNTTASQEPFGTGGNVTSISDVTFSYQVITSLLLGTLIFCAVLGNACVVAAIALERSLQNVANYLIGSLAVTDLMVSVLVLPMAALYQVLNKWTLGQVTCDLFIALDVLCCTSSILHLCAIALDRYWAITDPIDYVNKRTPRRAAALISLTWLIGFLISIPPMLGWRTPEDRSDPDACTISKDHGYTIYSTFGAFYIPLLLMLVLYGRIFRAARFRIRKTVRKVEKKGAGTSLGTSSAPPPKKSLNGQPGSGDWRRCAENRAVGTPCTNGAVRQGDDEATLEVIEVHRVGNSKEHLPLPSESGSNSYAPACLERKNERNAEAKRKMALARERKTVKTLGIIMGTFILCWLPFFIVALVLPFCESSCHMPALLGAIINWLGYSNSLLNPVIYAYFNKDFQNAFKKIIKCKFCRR

[5] = target: Platelet-activating factor receptor (Homo sapiens, UniProt P25105); assay: biochemical; format: tissue-based; settings: platelet; also: in other assays of this panel Not Active means under 50% inhibition at 10 µM
[6] = target: T4, Vasoactive intestinal polypeptide receptor 1 (Homo sapiens, UniProt P32241); format: cell membranes, Membrane; settings: ht-29; also: in other assays of this panel Not Active means under 50% inhibition at 10 µM
T4 sequence (P32241 whole entry): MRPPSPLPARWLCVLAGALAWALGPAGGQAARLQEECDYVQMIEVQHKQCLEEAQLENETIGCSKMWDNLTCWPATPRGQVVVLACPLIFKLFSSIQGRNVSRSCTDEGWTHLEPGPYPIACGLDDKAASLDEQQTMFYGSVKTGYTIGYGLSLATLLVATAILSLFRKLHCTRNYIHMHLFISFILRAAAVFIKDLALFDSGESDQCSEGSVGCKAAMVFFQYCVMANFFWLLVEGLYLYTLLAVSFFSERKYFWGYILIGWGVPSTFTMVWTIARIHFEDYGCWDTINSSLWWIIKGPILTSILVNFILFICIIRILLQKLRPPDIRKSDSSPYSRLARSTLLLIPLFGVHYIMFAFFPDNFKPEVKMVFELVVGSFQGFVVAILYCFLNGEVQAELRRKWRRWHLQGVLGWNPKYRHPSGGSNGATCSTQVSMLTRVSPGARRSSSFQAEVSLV

Chain of Platelet-activating factor receptor (P25105 whole entry): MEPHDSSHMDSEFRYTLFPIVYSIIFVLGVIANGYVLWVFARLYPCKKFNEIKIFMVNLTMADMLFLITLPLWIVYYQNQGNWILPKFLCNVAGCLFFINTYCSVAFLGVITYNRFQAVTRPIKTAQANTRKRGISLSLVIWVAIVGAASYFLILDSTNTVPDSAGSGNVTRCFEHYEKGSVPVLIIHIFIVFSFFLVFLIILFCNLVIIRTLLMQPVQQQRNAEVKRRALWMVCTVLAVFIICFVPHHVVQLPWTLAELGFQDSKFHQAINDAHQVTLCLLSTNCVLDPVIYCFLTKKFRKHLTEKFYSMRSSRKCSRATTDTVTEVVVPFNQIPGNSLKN

Clc1ccc(C(c2ccccc2Cl)C(Cl)Cl)cc1 (stereo not given) [MITOTANE]
Not Active: IC50 [1] | Ki [1] | IC50 [2] | Ki [2] | IC50 (Cytochrome P450 2A6) | Ki (Cytochrome P450 2A6) | IC50 [3] | IC50 [4] | IC50 [5] | IC50 [6]

COc1c(C)c2c(c(O)c1C/C=C(\C)CCC(=O)OCCN1CCOCC1)C(=O)OC2 [MYCOPHENOLATE MOFETIL]
Not Active: IC50 [1] | Ki [1] | IC50 [2] | Ki [2] | IC50 (Cytochrome P450 2A6) | Ki (Cytochrome P450 2A6) | IC50 [3] | IC50 [4] | IC50 [5] | IC50 [6]

C[C@]12Cc3c[nH]nc3C[C@@H]1CC[C@@H]1[C@@H]2CC[C@@]2(C)[C@H]1CC[C@]2(C)O [STANOZOLOL]
Not Active: IC50 [1] | Ki [1] | IC50 [2] | Ki [2] | IC50 (Cytochrome P450 2A6) | Ki (Cytochrome P450 2A6) | IC50 [3] | IC50 [4] | IC50 [5] | IC50 [6]

CC(C)(C)NCC(O)c1cc(O)cc(O)c1 (stereo not given) [TERBUTALINE]
Not Active: IC50 [1] | Ki [1] | IC50 [2] | Ki [2] | IC50 (Cytochrome P450 2A6) | Ki (Cytochrome P450 2A6) | IC50 [3] | IC50 [4] | IC50 [5] | IC50 [6]

C=CC[C@@H]1/C=C(\C)C[C@H](C)C[C@H](OC)[C@H]2O[C@@](O)(C(=O)C(=O)N3CCCC[C@H]3C(=O)O[C@H](/C(C)=C/[C@@H]3CC[C@@H](O)[C@H](OC)C3)[C@H](C)[C@@H](O)CC1=O)[C@H](C)C[C@@H]2OC [TACROLIMUS ANHYDROUS]
Not Active: IC50 [1] | Ki [1] | IC50 [2] | Ki [2] | IC50 (Cytochrome P450 2A6) | Ki (Cytochrome P450 2A6) | IC50 [3] | IC50 [4] | IC50 [5] | IC50 [6]

CC(=O)[C@H]1CC[C@H]2[C@@H]3CCC4=CC(=O)CC[C@]4(C)[C@H]3CC[C@]12C [PROGESTERONE]
Not Active: IC50 [1] | Ki [1] | IC50 [2] | Ki [2] | IC50 (Cytochrome P450 2A6) | Ki (Cytochrome P450 2A6) | IC50 [3] | IC50 [4] | IC50 [5] | IC50 [6]

CN[C@H](CC(C)C)C(=O)N[C@H]1C(=O)N[C@@H](CC(N)=O)C(=O)N[C@H]2C(=O)N[C@H]3C(=O)N[C@H](C(=O)N[C@H](C(=O)O)c4cc(O)cc(O)c4-c4cc3ccc4O)[C@H](O)c3ccc(c(Cl)c3)Oc3cc2cc(c3O[C@@H]2O[C@H](CO)[C@@H](O)[C@H](O)[C@H]2O[C@H]2C[C@](C)(N)[C@H](O)[C@H](C)O2)Oc2ccc(cc2Cl)[C@H]1O [VANCOMYCIN]
Not Active: IC50 [1] | Ki [1] | IC50 [2] | Ki [2] | IC50 (Cytochrome P450 2A6) | Ki (Cytochrome P450 2A6) | IC50 [3] | IC50 [4] | IC50 [5] | IC50 [6]

CN(C)[C@@H]1C(O)=C(C(N)=O)C(=O)[C@@]2(O)C(O)=C3C(=O)c4c(O)cccc4[C@@](C)(O)[C@H]3C[C@@H]12 [TETRACYCLINE]
Not Active: IC50 [1] | Ki [1] | IC50 [2] | Ki [2] | IC50 (Cytochrome P450 2A6) | Ki (Cytochrome P450 2A6) | IC50 [3] | IC50 [4] | IC50 [5] | IC50 [6]

CO[C@@H]1[C@@H](O[C@@H]2O[C@H](C)[C@@H](O[C@H]3C[C@@](C)(O)[C@@H](OC(=O)CC(C)C)[C@H](C)O3)[C@H](N(C)C)[C@H]2O)[C@@H](CC=O)C[C@@H](C)[C@@H](O)/C=C/C=C/C[C@@H](C)OC(=O)C[C@H]1O [KITASAMYCIN]
Not Active: IC50 [1] | Ki [1] | IC50 [2] | Ki [2] | IC50 (Cytochrome P450 2A6) | Ki (Cytochrome P450 2A6) | IC50 [3] | IC50 [4] | IC50 [5] | IC50 [6]
